The text below walks through data of patent US20100056516A1 (priority 2006, published 2010).

In series [1] the test system is HeLa P4-2 cell line. The text has this:
The HeLa P4-2 cell line used in the single cycle HIV infectivity Assay B of Example 270 was also used to determine compound cytotoxicity in the absence of viral infection.

In series [2] the target is HIV-1 reverse transcriptase (RNase H) (Human immunodeficiency virus type 1 group M subtype B, UniProt P04585). Put plainly: ASH assay: RNase H mediated RNA cleavage (ECL format, BioVeris M384). The series is classed as biochemical. On the procedure:
Potency of a substance as an RNase H inhibitors can be determined by measuring its ability prevent RNase H catalyzed cleavage of the RNA strand in a RNA/DNA hybrid duplex substrate. RNase H activity is measured using a substrate generated by annealing the oligoribo-nucleotide 5′-rCrCrUrCrUrCrArArArArArCrArGrGrArGrCrArGrArArArGrArCrArArG (SEQ ID NO:1) to the oligodeoxyribonucleotide 5′-Biotin-[…] (SEQ ID NO:2). […] (SEQ ID NO:3). The resulting double-stranded duplex DNA product is quantitated in an ALPHA screen format using [streptavidin- and anti-fluorescein-coated beads (Packard Bioscience) following the manufacturer's guidelines and reading on a Fusion AlphaScreen instrument. Alternatively, the released 5′-Biotinylated DNA is annealed to a complementary oligodeoxyribonucleotide: 5′-ruthenium-[…] (SEQ ID NO:3). The resulting double-stranded duplex DNA product is quantitated in an ECL screen format using Dynabeads M280 coated with streptavidin (BioVeris Corporation) following the manufacturer's guidelines and reading on a BioVeris M384 Analyzer.

For series [3], the system named is HXB2 virus. The series is described as follows: microbe, parasite or virus in culture. The series is classed as cell-based, HIV. In outline: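 HXB2 virus used to infect HeLa P4-2 cells in a single-cycle format; inhibition of acute infection is measured.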
Series [4] has as its target HIV integrase (Human immunodeficiency virus type 1 group M subtype B, UniProt P04585). Put plainly: integrase strand transfer assay (STA). The series is classed as biochemical.
The mark [5] stands for this setting: Human immunodeficiency virus 1, HXB2, HeLaP4-2, read-out: SCIA-B (IC50, μM).
Where [6] appears, read: Human immunodeficiency virus 1, HXB2, HeLaP4-2, read-out: antiviral IC50 (SCIA-B).
Setting [7] is: IC50 in the STA assay, integrase strand transfer.
Setting [8] is: STA (IC50, μM), integrase strand-transfer assay, Example 269.
Setting [9] is: cytotoxicity test B, Alamar Blue, HeLa P4-2 cells, no virus, tested up to 100 micromolar.
Where [10] appears, read: RNase H mediated RNA cleavage assay, Example 269, read-out: ASH (IC50).
Setting [11] is: integrase strand transfer, read-out: IC50 in the STA assay.
Setting [12] is: integrase strand-transfer assay, Example 269, read-out: STA (IC50).

Like-named read-outs stand apart in the source and are kept apart here. Bounds are passed on as bounds.

As usually defined, the IC50 is the midpoint of a concentration-inhibition curve. As to `COC(=O)c1ccc2c(c1)CCN(c1cc(=O)n(O)c3ncccc13)C2` [Example 121, 4-[6-(methoxycarbonyl)-3,4-dihydroisoquinolin-2(1H)-yl]-1-hydroxy-1,8-naphthyridin-2(1H)-one], the “Cytotoxicity (LD50, μM)” value in series [1] (human) worked out at 16 µM. The IC50 in series [2] was 150 nM; in series [3] (setting [5]) it was 0.26 µM; in series [3] (setting [6]), less than 100 µM; in series [4] (setting [7]), less than 50 µM; in series [4] (setting [8]), 0.6 µM.
On to `NCc1ccc(-c2ccc3c(c2)CN(c2cc(=O)n(O)c4ncccc24)C3)cc1` [Example 257, 4-{5-[4-(aminomethyl)phenyl]-1,3-dihydro-2H-isoindol-2-yl}-1-hydroxy-1,8-naphthyridin-2(1H)-one], for which the “Cytotoxicity (LD50, μM)” value in series [1] (human) amounted to 49 µM. For the same compound, the IC50 in series [2] is 33 nM; in series [3] (setting [5]), 0.35 µM; in series [3] (setting [6]) it was less than 100 µM; in series [4] (setting [7]) it was less than 50 µM; in series [4] (setting [8]), 46 µM.
Take `O=c1cc(NCc2ccccn2)c2cccnc2n1O` [Example 149, 1-hydroxy-4-[(2-pyridinylmethyl)amino]-1,8-naphthyridin-2(1H-one)]: the “Cytotoxicity (LD50, μM)” value in series [1] (human) came out at 5.2 µM. Moreover, the IC50 in series [2] is 140 nM; in series [3] (setting [5]) it was 0.06 µM; in series [3] (setting [6]), less than 100 µM; in series [4] (setting [7]), less than 50 µM; in series [4] (setting [8]), 0.7 µM.
Regarding `NCc1ccccc1CNc1cc(=O)n(O)c2ncccc12` [Example 163, 4-{[2-(aminomethyl)benzyl]amino}-1-hydroxy-1,8-naphthyridin-2 (1H-one)], the “Cytotoxicity (LD50, μM)” value in series [1] (human) turned out to be 50 µM. In addition, the IC50 in series [2] is 180 nM; in series [3] (setting [5]), 0.14 µM; in series [3] (setting [6]) it was less than 100 µM; in series [4] (setting [7]) it was greater than 50 µM; in series [4] (setting [8]) it was greater than 50 µM.
With `NCc1ccc(-c2ccc(Cc3cc(=O)n(O)c4ncccc34)cc2)cc1` [Example 235, 4-{[4′-(aminomethyl)biphenyl-4-yl]methyl}-1-hydroxy-1,8-naphthyridin-2(1H)-one], the “Cytotoxicity (LD50, μM)” value in series [1] (human) amounted to 7.8 µM. Besides, the IC50 in series [2] is 46 nM; in series [3] (setting [5]) it was 0.13 µM; in series [3] (setting [6]) it was less than 100 µM; in series [4] (setting [7]), greater than 50 µM; in series [4] (setting [8]), greater than 50 µM.
Take `O=C(NC1CCN(Cc2ccccc2)CC1)c1c(O)c2cccnc2n(O)c1=O.O=C(O)C(F)(F)F` [Example 21, N-(1-Benzylpiperidin-4-yl)-1,4-dihydroxy-2-oxo-1,2-dihydro-1,8-naphthyridine-3-carboxamide, trifluoro-acetic acid salt]: the “Cytotoxicity (LD50, μM)” value in series [1] (setting [9]) was greater than 100 µM. Moreover, the IC50 in series [2] was 180 nM; in series [3] (setting [5]), 0.47 µM; in series [3] (setting [6]), less than 100 µM; in series [4] (setting [7]), less than 50 µM; in series [4] (setting [8]), 0.25 µM.
In the case of `CCOC(=O)c1ccnc2c1c(-c1ccc(-c3ccc(CN)cc3)cc1)cc(=O)n2O` [Example 241, Ethyl 5-[4′-(aminomethyl)biphenyl-4-yl]-8-hydroxy-7-oxo-7,8-dihydro-1,8-naphthyridine-4-carboxylate], the “Cytotoxicity (LD50, μM)” value in series [1] (human) was determined as 3.8 µM. In addition, the IC50 in series [2] (setting [10]) is 290 nM; in series [3] (setting [5]) it was 0.32 µM; in series [3] (setting [6]) it was less than 100 µM; in series [4] (setting [11]), less than 50 µM; in series [4] (setting [12]), 6.2 µM.
Take `O=c1cc(N2CCc3ncccc3C2)c2cccnc2n1O` [Example 123, 4-(7,8-dihydro-1,6-naphthyridin-6(5H)-yl)-1-hydroxy-1,8-naphthyridin-2(1H)-one]: the “Cytotoxicity (LD50, μM)” value in series [1] (setting [9]) stood at 8.7 µM. Further, the IC50 is 110 nM in series [2] (setting [10]); 0.42 µM in series [3] (setting [5]); less than 100 µM in series [3] (setting [6]); less than 50 µM in series [4] (setting [11]); 2.4 µM in series [4] (setting [12]).
As for `O=c1cc(NCc2cccc(N3CCOCC3)n2)c2cccnc2n1O` [Example 115, 1-hydroxy-4-{[(6-morpholin-4-ylpyridin-2-yl)methyl]amino}-1,8-naphthyridin-2(1H)-one], in series [1] (human), the “Cytotoxicity (LD50, μM)” value is 8.6 µM. Besides, the IC50 in series [2] is 180 nM; in series [3] (setting [5]), 0.11 µM; in series [3] (setting [6]), less than 100 µM; in series [4] (setting [7]), less than 50 µM; in series [4] (setting [8]), 1.9 µM.
In the case of `O=c1c(-c2ccccc2)c(O)c2cc(F)cnc2n1O` [Example 48, 6-Fluoro-1,4-dihydroxy-3-phenyl-1,8-naphthyridin-2(1H)-one], the “Cytotoxicity (LD50, μM)” value in series [1] (human) is 31 µM. In addition, the IC50 in series [2] (setting [10]) is 200 nM; in series [3] (setting [5]), 0.14 µM; in series [3] (setting [6]), less than 100 µM; in series [4] (setting [11]), less than 50 µM; in series [4] (setting [12]), 0.023 µM.
Take `CNC(=O)c1c(O)c2cccnc2n(O)c1=O` [Example 24, 1,4-Dihydroxy-N-methyl-2-oxo-1,2-dihydro-1,8-naphthyridine-3-carboxamide]: the “Cytotoxicity (LD50, μM)” value in series [1] (human) was greater than 100 µM. The IC50 in series [2] was 180 nM; in series [3] (setting [5]), 0.22 µM; in series [3] (setting [6]) it was less than 100 µM; in series [4] (setting [7]), less than 50 µM; in series [4] (setting [8]) it was 0.55 µM.
As to `O=c1c(-c2cccc(F)c2)c(O)c2cccnc2n1O` [Example 36, 3-(3-Fluorophenyl)-1,4-dihydroxy-1,8-naphthyridin-2(1H)-one], the IC50 in series [3] (setting [6]) was less than 100 µM; in series [4] (setting [11]), less than 50 µM.
As for `O=c1c(-c2ccccc2)c(O)c2cc(-c3ccccc3-n3cccn3)cnc2n1O` [Example 53, 1,4-Dihydroxy-3-phenyl-6-[2-(1H-pyrazol-1-yl)phenyl]-1,8-naphthyridin-2(1H)-one], the values for the IC50 in series [3] (setting [6]) and in series [4] (setting [11]) were less than 100 µM and less than 50 µM, respectively.
The matching figures for `Nc1ccc(-c2cccc(Cc3cc(=O)n(O)c4ncccc34)c2)cc1` [Example 234, 4-[(4′-aminobiphenyl-3-yl)methyl]-1-hydroxy-1,8-naphthyridin-2(1H)-one]: less than 100 µM and less than 50 µM.
Consider `CN(C(=O)c1c(O)c2cccnc2n(O)c1=O)C1CCN(C(=O)OC(C)(C)C)C1` (stereo not shown) [Example 10, tert-Butyl 3-[[(1,4-dihydroxy-2-oxo-1,2-dihydro-1,8-naphthyridin-3-yl)carbonyl](methyl)amino]pyrrolidine-1-carboxylate], for which the concentration for half-maximal inhibition (IC50) in series [3] (setting [6]) was less than 100 µM; in series [4] (setting [11]), less than 50 µM.
The matching figures for `O=c1c(-c2cccc(Br)c2)c(O)c2cccnc2n1O` [Example 44, 3-(3-bromophenyl)-1,4-dihydroxy-1,8-naphthyridin-2(1H)-one]: less than 100 µM and less than 50 µM.
As to `CCOC(=O)c1c(O)c2cc(C(=O)N3CCC(CCc4ccccc4)CC3)cnc2n(O)c1=O` [Example 84, Ethyl 1,4-dihydroxy-2-oxo-6-{[4-(2-phenylethyl)piperidin-1-yl]carbonyl}-1,2-dihydro-1,8-naphthyridine-3-carboxylate], the IC50 in series [3] (setting [6]) is less than 100 µM; in series [4] (setting [11]) it was less than 50 µM.
`CCOC(=O)c1c(N2CCc3ccc(-c4cccc(F)c4)cc3C2)c2cccnc2n(O)c1=O` [Example 259, ethyl 4-[7-(3-fluorophenyl)-3,4-dihydroisoquinolin-2(1H)-yl]-1-hydroxy-2-oxo-1,2-dihydro-1,8-naphthyridine-3-carboxylate]: the results for the IC50 in series [3] (setting [6]) and in series [4] (setting [11]) were less than 100 µM and greater than 50 µM, respectively.
`CCOC(=O)c1c(O)c2cc(C(=O)NCc3cccc(OC)c3)cnc2n(O)c1=O` [Example 78, Ethyl 1,4-dihydroxy-6-{[3-methoxybenzyl)amino] carbonyl}-2-oxo-1,2-dihydro-1,8-naphthyridine-3-carboxylate]: the IC50 in series [3] (setting [6]) is less than 100 µM; in series [4] (setting [11]), less than 50 µM.
